Series [1] concerns PC3 (prostate cancer). Set-up: method as in PMID 30054973. The conditions noted are these: positive control, for relative comparison; read-out: Cytotoxicity (IC50) PC3; cited from earlier work.
For series [2], the system named is NCI-H23 (lung cancer). Set-up: method as in PMID 30054973. The conditions noted are these: positive control, for relative comparison; read-out: Cytotoxicity (IC50) NCI-H23; cited from earlier work.
The next series deals with SW620 (colon cancer). Kind of series: SRB cytotoxicity assay, SW620. The class given is cell-based. The conditions noted are these: Homo sapiens, SW-620, 48 h incubation, mean ± SEM of 3 independent experiments. The source says: (§1) Three human cancer cell lines: colon cancer (SW620), prostate cancer (PC3), and lung cancer (NCI-H23) were used for sceening the cytotoxicity of the compounds. The cancer cells were purchased from American Type Culture Collection (Manassas, VA, USA). Other reagents/media for cell culture were obtained from GIBCO (Grand Island, New York, USA). The testing cancer cells were culture in Dulbecco’s Modified Eagle Medium until confluence. Then, they were trypsinized and suspended at the level of 3 × 10^4 cells/mL of cell culture medium. On day 0, cancer cells were seeded at a volume of 180 µL/well of 96-well plates and incubated for 24 h at 37 °C in a 5% CO2 incubator. On day 1, 20 µL of various concentrations of testing compounds were added to each well of the 96-well plates. Chemicals were dissolved in dimethyl sulfoxide (DMSO, stock) and diluted in culture medium (1% DMSO) before adding to the culture. After 48 h incubation, the sulforhodamine B assay was used for cell density determination with slight modifications[22]–[26]. The Probits were used for the calculation of IC50 values. The reported IC50 were the averages of three independent screening (SD ≤ 10%)[27].
(§2) Two series of compounds synthesized (4a–p and 5a–f) were evaluated for their cytotoxicity against three human cancer cell lines, including SW620 (colon cancer), PC3 (prostate cancer), NCI-H23 (lung cancer), using SRB method as described previously[22] with slight modifications[23]–[26].

For series [3], the system named is PC3 (prostate cancer). Kind of series: SRB cytotoxicity assay, PC3. To be noted: Homo sapiens, 48 h incubation, mean ± SEM of 3 independent experiments. The class given is cell-based.
Text: as §1, §2

The subject of series [4] is NCI-H23 (lung cancer). The series is described as follows: SRB cytotoxicity assay, NCI-H23. Format: cell-based. To be noted: Homo sapiens, 48 h incubation, mean ± SEM of 3 independent experiments.
Text: as §1, §2

A short description of series [5]: Cytotoxicity on normal mesenchymal stem cells. Format: cell-based. The conditions noted are these: human bone marrow-derived mesenchymal stem cells; mean ± SEM; read-out: Cytotoxicity (IC50) MSCs. As for the experimental part:
Overally, 5-fluorinated compounds (4i–p and 5d–f) were slightly more cytotoxic than non-fluorinated ones (4a–h, 5a–c). For compounds in series 4a–p, it was observed that, electron-releasing substituents (–OCH3, OH) were generally better than electron-withdrawing groups (–Cl) for cytotoxicity. Especially, compounds with 2-OH substituents produced the best cytotoxicity. The addition of either 4-OCH3 or 3-allyl groups further enhanced cytotoxicity of the related compounds (4g, 4h and 4o, 4p).

For a further series, the target named is T1, caspase-3 (Homo sapiens, UniProt P42574).
T1 construct: endogenous in cells; host or cells: U937 human lymphoma cells
T1 sequence (P42574 1-277): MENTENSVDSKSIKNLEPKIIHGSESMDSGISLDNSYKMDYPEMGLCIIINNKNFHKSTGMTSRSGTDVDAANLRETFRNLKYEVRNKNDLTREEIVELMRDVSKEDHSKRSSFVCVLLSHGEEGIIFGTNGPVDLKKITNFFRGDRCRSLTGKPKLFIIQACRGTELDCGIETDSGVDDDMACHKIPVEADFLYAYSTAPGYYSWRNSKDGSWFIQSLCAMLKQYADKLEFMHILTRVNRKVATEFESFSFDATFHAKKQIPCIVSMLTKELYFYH
Kind of series: Caspase-3 activation assay in U937 cell extract. The class given is cell-based. The conditions noted are these: U937 cells, 24 h, 50 µM. As for the experimental part:
Caspase-3 activation assay
Caspase activity was measured by using caspase 3 assay kit according to the manufacturer’s instructions (abcam, MA, USA). U937 human lymphoma cells (5 × 10^5/mL per well) were plated in 6-well culture plates and allowed to grow for 24 h. The cells were treated with compounds for 24 h, and then harvested. The harvested cells were washed twice with ice-cold PBS and treated with lysis buffer included in the kit. Cell lysate (100 µg/50 µL) was mixed with 50 µL of 2 × reaction buffer and 5 µL of DEVD-p-NA substrate as the instruction of caspase-3 assay kit (Abcam, cat. N. ab39401). […] was measured after one-hour incubation.
Next, we selected 5 representative compounds, including 4f, 4h, 4n, 4o and 4p, to investigate their effects on the caspase activity, cell cycle, and apoptosis. […] Thus, we used the extract of U937 cells in caspase-3 activation assay, referring to our previous study. […] However, our compounds unexpectedly were not recorded to activate caspase-3 activity. […] Next, we investigated the effect of PAC-1 and our chemicals on cell cycle and apoptosis by using U937 cells. In the cell cycle analysis, U937 cells were treated with 50 µM of compounds for 24 h, stained with propidium iodide (PI) in the presence of RNase, and then analyzed for DNA content by using flow cytometry. PAC-1 was used in parallel as a positive control.

For series [6], the system named is U937 human lymphoma cells. The series is described as follows: Cell cycle analysis (PI, flow cytometry). The class given is cell-based. To be noted: 50 µM, 24 h. As for the experimental part:
U937 human lymphoma cells (5 × 10^5/mL per well) were plated in 6-well culture plates and allowed to grow for 24 h. In our first experiment, we examined the effects of 4f, 4h, 4n, 4o, 4p, and PAC-1 on cell cycles at 50 µM. In the second experiment, we examined the dose-dependent effect of 4o at 5, 10, and 30 µM and PAC-1 at 30 µM on cell cycles. The cells were treated with compounds for 24 h, and then harvested. The harvested cells were washed twice with ice-cold PBS, fixed in 75% ice-cold ethanol, and stained with propidium iodide (PI) in the presence of RNase at room temperature for 30 min. The stained cells were analyzed for DNA content using a FACScalibur flow cytometer (BD Biosciences, San Jose, CA, USA) and the data were processed using Cell Quest Pro software (BD Biosciences).
Figure 3 Cell cycle analysis after treatment with some compounds. U937 human lymphoma cells were treated with compounds (50 µM) for 24 h. The harvested cells were stained with propidium iodide (PI) in the presence of RNase and then were analyzed for DNA content by using flow cytometry. Ten thousand cells were acquired (n = 3). UN untreated, VH vehicle (DMSO. 0.1%). Representative histograms (A) and bar graphs (B) are shown. p values were calculated using one-way ANOVA in GraphPad Software (San Diego, CA, USA). *p < 0.01 vs VH control.
Figure 4 Cell cycle analysis under treatment with different concentrations of compound 4o. U937 human lymphoma cells were treated with compound 4o at 5, 10 and 30 µM or PAC-1 (30 µM) for 24 h. The harvested cells were stained with propidium iodide (PI) in the presence of RNase and then were analyzed for DNA content by using flow cytometry. Ten thousand cells were acquired (n = 3). UN untreated, VH vehicle (DMSO. 0.1%). Representative histograms (A) and bar graphs (B) are shown. p values were calculated using one-way ANOVA in GraphPad Software (San Diego, CA, USA). *p < 0.01 vs VH control.

A further series has as its system SW620 cells. The series is described as follows: Morphology changes of treated cells. The class given is cell-based, human. To be noted: 24 h treatment (50 μM; 4o 5, 10, 30 μM; PAC-1 30 μM). As for the experimental part: Figure 7 Morphology changes of cells treated with compound 4f, 4h, 4n, 4o, 4p or PAC-1. SW620 at 2.5 × 10^5 cells/mL (500 µL in 24 well) were incubated for 24 h and then further treated with compounds or PAC-1 (50 μM) for 24 h. Cells were photographed using an Imaging Device (Celldiscoverer 7) with ×20 (A) and ×40 (B) lens. Scale bar: […]. UN untreated, VH vehicle (DMSO. 0.1%). Representative images are shown.
Figure 8 Morphology changes of cells treated with compound 4o or PAC-1. SW620 at 2.5 × 10^5 cells/mL (500 µL in 24 well) were incubated for 24 h and then further treated with 4o (5, 10, and 30 μM) or PAC-1 (30 μM) for 24 h. Cells were photographed using an Imaging Device (Celldiscoverer 7) with ×20 (A) and ×40 (B) lens. Scale bar: […]. UN untreated, VH vehicle (DMSO. 0.1%). Representative images are shown.

The next series deals with U937 cells. Set-up: method as in PMID 34674294. The conditions noted are these: 48 h, as reported, read-out: IC50 in 48-h-cytotoxicity assay; cited from earlier work.

The values that follow come from article PMC8861050, “Design, synthesis and evaluation of novel 2-oxoindoline-based acetohydrazides as antitumor agents” (Scientific Reports, 2022).

Read-outs that look alike come from different tables or passages of the source.

Regarding `O=c1[nH]cc(F)c(=O)[nH]1` [Compound 5-FU, 5-Fluorouracil], the IC50 in the series with PC3 (prostate cancer) [1] was 13.6 ± 0.46 µM; in the series on NCI-H23 (lung cancer) [2] it was 13.5 ± 3.92 µM.
Regarding `C=CCc1cccc(/C=N/NC(=O)CN2CCN(Cc3ccccc3)CC2)c1O` [PAC-1, reference compound], the IC50 is 5.43 ± 0.18 µM in the series on SW620 (colon cancer); 4.11 ± 0.39 µM in the series with PC3 (prostate cancer) [3]; 5.11 ± 0.22 µM with NCI-H23 (lung cancer) [4]; 9.22 ± 0.12 µM in [5]; 8.47 µM in the series on U937 cells. Moreover, at caspase-3, the Caspase-3 activation entry is on record as “activated caspase-3”. Further, in series [6], the “Effect on cell cycle distribution” value is on record as “accumulation of cells in G0/G1 phase”. In the series on SW620 cells, the Cellular morphology entry is given as “showed morphology of apoptotic cells”.
